Source: PubChem BioAssay AID588773 (The Scripps Research Institute Molecular Screening Center, 2011)
Calls of active or inactive are those of the source.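 Rule for the calls: active = inhibition of plasma PAF acetylhydrolase at a set limit or more at 0.1 µM, with tenfold selectivity over all off-targets; inactive = inhibition below the limit or weaker selectivity.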

Tests used:
ABHD3 = assay: pPAFAH inhibition and serine hydrolase selectivity, late-stage follow-up, selectivity assay for pPAFAH inhibitor project, biochemical, gel-based, FP-Rh fluorescence, mouse, HTS hit compounds (AID 588773); details: gel-based competitive ABPP, proteome, at 10 µM
LYPLA2 = assay: as above; details: gel-based competitive ABPP, proteome, at 10 µM
ABHD4 = ABHD4 (UniProt Q8VD66); assay: as above; details: gel-based competitive ABPP, proteome, at 10 µM
FAAH = assay: as above; details: gel-based competitive ABPP, proteome, stronger effect = higher value
[1] = target: Platelet-activating factor acetylhydrolase (Mus musculus) (UniProt Q60963); assay: as above; details: gel-based competitive ABPP, proteome, pPAFAH, stronger effect = higher value
[2] = target: Monoglyceride lipase (Mus musculus) (UniProt O35678); assay: as above; details: gel-based competitive ABPP, proteome, MAGL; for inhibition: stronger effect = higher value
[3] = as above; details: gel-based competitive ABPP, proteome, MW 30 kDa protein, stronger effect = higher value
ABHD6 = assay: as above; details: gel-based competitive ABPP, proteome; for inhibition: stronger effect = higher value
LYPLA1 = assay: as above; details: gel-based competitive ABPP, proteome, at 10 µM

Chain of Monoglyceride lipase (Mus musculus) (O35678 whole entry, looked up): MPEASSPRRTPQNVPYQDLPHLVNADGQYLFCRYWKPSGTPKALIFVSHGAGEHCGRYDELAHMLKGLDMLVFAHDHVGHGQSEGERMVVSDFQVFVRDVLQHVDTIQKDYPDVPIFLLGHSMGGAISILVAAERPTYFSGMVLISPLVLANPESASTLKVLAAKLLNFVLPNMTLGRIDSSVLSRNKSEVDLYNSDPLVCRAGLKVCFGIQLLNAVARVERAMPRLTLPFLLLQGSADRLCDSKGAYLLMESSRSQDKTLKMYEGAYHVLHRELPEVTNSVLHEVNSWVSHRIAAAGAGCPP
Chain of Platelet-activating factor acetylhydrolase (Mus musculus) (Q60963 whole entry, looked up): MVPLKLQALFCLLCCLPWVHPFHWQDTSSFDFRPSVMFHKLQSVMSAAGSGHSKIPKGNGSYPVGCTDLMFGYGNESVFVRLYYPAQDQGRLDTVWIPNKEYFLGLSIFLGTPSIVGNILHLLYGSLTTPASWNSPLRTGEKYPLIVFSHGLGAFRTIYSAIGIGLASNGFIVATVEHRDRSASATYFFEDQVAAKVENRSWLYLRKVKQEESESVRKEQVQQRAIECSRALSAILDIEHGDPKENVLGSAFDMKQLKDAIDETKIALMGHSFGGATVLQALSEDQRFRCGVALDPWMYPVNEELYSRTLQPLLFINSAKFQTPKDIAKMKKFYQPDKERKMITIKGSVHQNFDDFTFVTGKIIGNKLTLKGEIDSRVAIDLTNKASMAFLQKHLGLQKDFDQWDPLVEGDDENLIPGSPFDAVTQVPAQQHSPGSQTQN
Chain of ABHD4 (Q8VD66 whole entry, looked up): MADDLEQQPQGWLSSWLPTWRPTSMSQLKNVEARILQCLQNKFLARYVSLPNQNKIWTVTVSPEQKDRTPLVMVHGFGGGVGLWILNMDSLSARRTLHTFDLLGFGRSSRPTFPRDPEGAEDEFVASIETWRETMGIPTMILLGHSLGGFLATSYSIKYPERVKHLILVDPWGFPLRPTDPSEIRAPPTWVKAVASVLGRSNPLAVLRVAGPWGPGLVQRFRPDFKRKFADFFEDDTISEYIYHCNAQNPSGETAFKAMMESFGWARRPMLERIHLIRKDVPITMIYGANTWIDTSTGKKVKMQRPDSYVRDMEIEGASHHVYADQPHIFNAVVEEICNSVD

Row | SMILES | outcome (ABHD3) | outcome (LYPLA2) | outcome (ABHD4) | inhibition (FAAH; at 10 µM) | inhibition (FAAH; inhibition, at 1 µM) [%] | inhibition ([1]; at 10 µM) | inhibition ([1]; inhibition, at 1 µM) [%] | outcome ([2]; at 10 µM) | inhibition ([3]; at 0.1 µM) [%] | inhibition ([3]; at 1 µM) [%] | inhibition (ABHD6; at 10 µM) | inhibition (ABHD6; inhibition, at 1 µM) [%] | outcome (LYPLA1) | inhibition (FAAH; inhibition, at 0.1 µM) [%] | inhibition ([1]; inhibition, at 0.1 µM) [%] | inhibition ([2]; at 10 µM) | inhibition ([2]; inhibition, at 1 µM) [%] | inhibition (ABHD6; inhibition, at 0.1 µM) [%] | outcome (ABHD6; at 10 µM)
1 | O=C(Oc1nsnc1N1CCOCC1)N1CCOCC1 | inactive | inactive | inactive | 85% (inactive) | 80 | 86% (inactive) | 28 | inactive | 4 | 23 | 39% (inactive) | 29 | inactive |  |  |  |  |  | 
2 | O=C(Oc1ccc(-c2ccccc2)cc1)N1CCOCC1 | inactive | inactive | inactive | 83% (inactive) | 31 | 94% (inactive) | 78 |  | 21 | 27 | 25% (inactive) | 16 | inactive | 23 | 32 | 20% (inactive) | 6 | 12 | 
3 | CCCCOC(=O)c1ccc(OC(=O)N2CCOCC2)cc1 | inactive | inactive | inactive | 62% (inactive) | 30 | 90% (inactive) | 70 | inactive |  |  | 22% (inactive) | 9 | inactive |  | 5 |  |  |  | 
4 | O=C(Oc1ccc([N+](=O)[O-])cc1)N1CCC(N2CCCCC2)CC1 | inactive | inactive | inactive | 60% (inactive) | 30 | 92% (inactive) | 66 |  |  | 22 | 48% (inactive) | 22 | inactive |  |  | 45% (inactive) | 23 |  | 
5 | O=C(CCCSc1ccc(Cl)cc1)Nc1cc(S(=O)(=O)N2CCOCC2)ccc1O | inactive | inactive | inactive | 25% (inactive) |  | 88% (inactive) | 50 |  |  |  | 26% (inactive) |  | inactive |  | 18 | 27% (inactive) |  |  | 
6 | CN(C)C(=O)Oc1noc2cc(Cl)ccc12 | inactive | inactive | inactive | 100% | 100 | 100% (inactive) | 92 |  |  | 6 | 65% (inactive) | 26 | inactive | 100 | 47 | 33% (inactive) | 2 | 21 | 
7 | O=C(/C=C/c1cccs1)c1cc(Br)ccc1OC(=O)N1CCOCC1 | inactive | inactive | inactive | 61% (inactive) | 18 | 75% (inactive) | 56 | inactive |  |  |  |  | inactive |  |  |  |  |  | inactive
8 | O=C(Oc1ccc(-c2ccccc2)cc1)N1CCCCC1 | inactive | inactive | inactive | 99% (inactive) | 56 | 95% (inactive) | 33 |  | 18 | 60 | 53% (inactive) | 34 | inactive |  | 35 | 40% (inactive) | 36 |  | 
9 | O=C(Oc1ccc(Oc2ccccc2)cc1)N1CCC(O)CC1 | inactive | inactive | inactive | 17% (inactive) | 2 | 92% (inactive) | 62 | inactive |  |  | 39% (inactive) | 19 | inactive |  |  |  |  |  | 
